{"source": "patent US4879376A", "about": "“Triterpene saponins having anti-inflammatory, mucolytic and antiedemic activities, process for the preparation thereof and pharmaceutical compositions containing them” (priority 1986, dated 1989)", "key": {"phenylquinone writhing": {"system": "phenylquinone writhing", "experiment": "Analgesic activity (phenylquinone writhing test)", "format": "in vivo", "conditions": "mouse", "text": "(c) Analgesic activity (phenylguinone writhing test)"}, "[1]": {"system": "carrageenin oedema on rat paw", "experiment": "Antioedema activity (carrageenin oedema test)", "format": "in vivo", "method": "(b) Antioedema activity (carrageenin oedema test) Antioedema activity was evaluated in the test of carrageenin oedema on rat paw, after oral and topical administration."}, "mucus excretion": {"system": "mucus excretion", "experiment": "Mucolytic / expectorant activity (sodium fluorescein excretion)", "format": "in vivo", "conditions": "mouse"}, "rat": {"system": "rat", "conditions": "in vivo, po", "text": "| ^a maximal nondiarrhoic dose"}}}
{"molecule": "CC(=O)Oc1ccccc1C(=O)O", "note": "[ASA, acetylsalicylic acid]", "values": [{"measurement": "% Variation in comparison with controls", "setting": "phenylquinone writhing; 50 mg/kg os", "value": -31, "unit": "%"}, {"measurement": "% Variation in comparison with controls", "setting": "phenylquinone writhing; 100 mg/kg os", "value": -32, "unit": "%"}, {"measurement": "% change in paw oedema versus controls", "setting": "[1]; 1 hour, 200 mg/kg os", "value": -51, "unit": "%"}, {"measurement": "% change in paw oedema versus controls", "setting": "[1]; 2 hours, 200 mg/kg os", "value": -39, "unit": "%"}, {"measurement": "% change in paw oedema versus controls", "setting": "[1]; 3 hours, 200 mg/kg os", "value": -52, "unit": "%"}, {"measurement": "% change in paw oedema versus controls", "setting": "[1]; 4 hours, 200 mg/kg os", "value": -45, "unit": "%"}, {"measurement": "% change in paw oedema versus controls", "setting": "[1]; 5 hours, 200 mg/kg os", "value": -42, "unit": "%"}]}
{"molecule": "CC1=CCC(C(C)(C)O)CC1O", "note": "(centres unmarked) [Sobrerol]", "values": [{"measurement": "% increase of sodium fluorescein excretion in comparison with controls", "setting": "mucus excretion; 150 × 1 mg/kg", "value": "+67%"}]}
{"molecule": "CN(Cc1cc(Br)cc(Br)c1N)C1CCCCC1", "note": "[Bromhexin, Bromhexine]", "values": [{"measurement": "% increase of sodium fluorescein excretion in comparison with controls", "setting": "mucus excretion; 75 × 1 mg/kg", "value": "+48%"}]}
{"molecule": "Escine", "values": [{"measurement": "maximal nondiarrhoic dose", "setting": "rat", "value": 50, "unit": "mg/kg"}, {"measurement": "% change in paw oedema versus controls", "setting": "[1]; 1 hour, 50 mg/kg os (maximal nondiarrhoic dose)", "value": -39, "unit": "%"}, {"measurement": "% change in paw oedema versus controls", "setting": "[1]; 2 hours, 50 mg/kg os (maximal nondiarrhoic dose)", "value": -44, "unit": "%"}, {"measurement": "% change in paw oedema versus controls", "setting": "[1]; 3 hours, 50 mg/kg os (maximal nondiarrhoic dose)", "value": -51, "unit": "%"}, {"measurement": "% change in paw oedema versus controls", "setting": "[1]; 4 hours, 50 mg/kg os (maximal nondiarrhoic dose)", "value": -49, "unit": "%"}, {"measurement": "% change in paw oedema versus controls", "setting": "[1]; 5 hours, 50 mg/kg os (maximal nondiarrhoic dose)", "value": -35, "unit": "%"}]}
{"molecule": "CCCCC1C(=O)N(c2ccccc2)N(c2ccccc2)C1=O", "note": "[Phenylbutazone]", "values": [{"measurement": "% change in paw oedema versus controls", "setting": "[1]; 1 hour, 100 mg/kg os", "value": -38, "unit": "%"}, {"measurement": "% change in paw oedema versus controls", "setting": "[1]; 2 hours, 100 mg/kg os", "value": -30, "unit": "%"}, {"measurement": "% change in paw oedema versus controls", "setting": "[1]; 3 hours, 100 mg/kg os", "value": -58, "unit": "%"}, {"measurement": "% change in paw oedema versus controls", "setting": "[1]; 4 hours, 100 mg/kg os", "value": -54, "unit": "%"}, {"measurement": "% change in paw oedema versus controls", "setting": "[1]; 5 hours, 100 mg/kg os", "value": -47, "unit": "%"}]}
